# Assay results taken from patent publication US11364260B2, “Methods and compositions for administration of iron” (American Regent, Inc., priority 2006, dated 2022).
# Like-named read-outs stand apart in the source and are kept apart here.
# Experiments:
# subjects with anemia [1] = assay: Integrated safety studies (10 clinical studies A-J)
# From the text: (§2) Study A was a single-center, single-dose escalation, randomized, double-blind, placebo-controlled pharmacokinetic study. Subjects were male and female, between 18 and 45 years of age, inclusive, with mild iron-deficiency anemia. […] Examined pharmacokinetic parameters included total serum iron and pharmacodynamic (serum ferritin and transferrin, iron binding capacity, % TSATpost, hemoglobin, reticulocyte, and serum transferrin receptor concentrations) endpoints. Examined safety parameters included adverse events, clinical laboratory evaluations, vital signs, ECG, and physical examinations.
# (§3) Study B was a single-center, single-dose, open label, uncontrolled pharmacokinetic study. Subjects were between 18 and 75 years of age with iron-deficiency or renal anemia with no other cause of anemia. Inclusion criteria included hemoglobin concentration between 9 and 13 g/dL, no blood transfusions in the previous 3 months, and no history of treatment with intravenous iron in the last 2 weeks. […] Examined primary pharmacokinetic parameters included the distribution of ^52Fe and incorporation of ^59Fe into red blood cells. Examined safety parameters included adverse events, clinical laboratory evaluations, vital signs, and physical examinations.
# (§4) Study C was an open-label, multicenter, randomized, multiple-dose, active-controlled postpartum anemia study. […] Where screening serum transferrin saturation (TSAT) was 20% or screening ferritin was 50 ng/mL, dosage=pre-pregnancy weight (kg)×(15−baseline hemoglobin [g/dL])×2.4+500 mg. Where screening TSAT was >20% and screening ferritin was >50 ng/mL, dosage=pre-pregnancy weight (kg)×(15−baseline hemoglobin [g/dL])×2.4. […] For primary efficacy, “success” was defined as an increase in hemoglobin of ≥2 g/dL anytime between baseline and end of study or time of intervention, while “failure” was defined as <2 g/dL increase in hemoglobin at all times between baseline and end of study or time of intervention. Examined safety parameters included adverse events, clinical laboratory evaluations, vital signs, and physical examinations.
# (§5) Study D was a multicenter, open-label, randomized, active-controlled, multiple-dose postpartum anemia study. Subjects were adult women ≥18 years old with postpartum anemia within 6 days after delivery. Treatment was administered once-weekly for a maximum of 3 infusions. […] Patients ≤66 kg received a minimum dose of 200 mg and a maximum dose of 15 mg iron/kg during each infusion. Patients >66 kg received a dose of 1000 mg on the first dosing occasion, and a minimum dose of 200 mg and a maximum dose of 1000 mg at each subsequent dosing. Doses of 200-400 mg were diluted in 100 cc NSS and 500-1000 mg were diluted in 250 cc NSS. Primary efficacy was examined as change from baseline levels of hemoglobin to Week 12. Examined safety parameters included adverse events in the mother and breast-fed infant, adverse events leading to discontinuation of treatment, vital signs, 12-lead electrocardiogram (ECG), physical examinations, and clinical laboratory panels.
# (§6) Study E was a multicenter, open-label, randomized, active-controlled, multiple-dose hemodialysis-associated anemia study.
# subjects with anemia [2] = settings: human, in vivo
# From the text: as §2, §3, §4, §5, §6
# [3] = light scattering; cited from earlier work
# [4] = in vivo; cited from earlier work
# [5] = isotonic; cited from earlier work
# dogs [6] = assay: Pre-clinical 13-week cumulative dose study in dogs; type: in vivo; settings: over 13 weeks
# rats [7] = assay: Pre-clinical 13-week cumulative dose study in rats; type: in vivo; settings: over 13 weeks
# [8] = Pharmacokinetic studies (total serum iron) in patients with iron deficiency anemia; type: in vivo, human
# From the text: (§1) There was negligible renal elimination.
# [9] = test system: patients receiving regular hemodialysis; assay: Multiple dose efficacy study in patients receiving regular hemodialysis; type: in vivo, human
# From the text: However, elevated levels of ferritin and TfS indicating iron overload were avoided. In both of these studies, there was a gradual decrease in transferrin over time, also indicating successful iron replacement.
# rabbit = assay: Intra-arterial, perivenous, intravenous tolerance studies; type: in vivo
# [10] = PET pharmacokinetic study of 52Fe/59Fe labelled VIT-45 after i.v. administration; type: in vivo, human
# From the text: See e.g., Beshara et al. (2003) Br. J. Haematol. 120(5): 853-859.
# as §1
# dogs [11] = assay: Single-dose toxicity studies, intravenous, dogs; type: in vivo
# patients (Hb levels) = assay: Multiple dose efficacy study, Cohorts 1 and 2 (Hb levels); type: in vivo, human
# From the text: Efficacy of iron replacement therapy is interpreted mainly in terms of the ability to normalize Hb levels and iron stores. […] In one study, 37% and 48% of patients in Cohorts 1 and 2, respectively, had achieved normal Hb levels at the 4-week follow-up visit, and 75% and 73%, respectively, had achieved a ≥20 g/L increase in Hb on at least 1 occasion.
# [12] = Core and particle size of iron carbohydrate complexes (electron micrographs); type: physicochemical
# From the text: FIG. 1A-FIG. 1C are a series of electron micrographs that depict the particle size of three iron carbohydrate complexes. […] FIG. 1B is an electron micrograph depicting the particle size of Venofer® (an iron sucrose).
# It is within the skill of the art to test various characteristics of iron carbohydrate complexes as so determine amenability to use in the methods described herein. For example, pH and osmolarity are straightforward determinations performed on a sample formulation. Likewise, techniques such as electron micrograph imaging, transmission electron microscopy, and atomic force microscopy provide direct methods to analyze both iron core and particle size. See e.g., FIG. 1; Table 1. The stability of the carbohydrate complex can be assessed through physicochemical properties such as kinetic characteristics, thermodynamic characteristics, and degradation kinetics. See, Geisser et al. (1992) Arzneimittelforschung 42(12):1439-1452. […] Pharmacokinetics can be assessed, for example, by iron tracer experiments. Hypersensitivity reactions can be monitored and assessed as described in, for example, Bailie et al. (2005) Nephrol. […] Safety, efficacy, and toxicity in human subjects can be assessed, for example, as described in Spinowitz et al. (2005) Kidney Intl. […]
# dextran antibodies = assay: Reaction with dextran antibodies / dextran antigenicity test
# patients = assay: Efficacy studies: pharmacodynamic effects (serum iron, TfS, serum ferritin); type: in vivo, human; settings: single and repeated doses
# From the text: The increase in serum ferritin levels illustrated the replenishment of the depleted iron stores, which is a well-identified and desired effect of iron therapy.
# [13] = In vitro and in vivo mutagenicity tests
# mice = assay: Single dose toxicity in mice
# rodents = assay: Single-dose toxicity studies, intravenous, rodents; type: in vivo
# [14] = pH and osmolarity of the iron carbohydrate complex; type: physicochemical
# From the text: It is within the skill of the art to test various characteristics of iron carbohydrate complexes as so determine amenability to use in the methods described herein. For example, pH and osmolarity are straightforward determinations performed on a sample formulation. Likewise, techniques such as electron micrograph imaging, transmission electron microscopy, and atomic force microscopy provide direct methods to analyze both iron core and particle size. See e.g., FIG. 1; Table 1. The stability of the carbohydrate complex can be assessed through physicochemical properties such as kinetic characteristics, thermodynamic characteristics, and degradation kinetics. See, Geisser et al. (1992) Arzneimittelforschung 42(12):1439-1452. Useful techniques to assess physical and electronic properties include absorption spectroscopy, X-ray diffraction analysis, transmission electron microscopy, atomic force microscopy, and elemental analysis. See, Kudasheva et al. (2004) J. Inorg. Biochem. 98:1757-1769. Pharmacokinetics can be assessed, for example, by iron tracer experiments. Hypersensitivity reactions can be monitored and assessed as described in, for example, Bailie et al. (2005) Nephrol. Dial. Transplant 20(7):1443-1449. Safety, efficacy, and toxicity in human subjects can be assessed, for example, as described in Spinowitz et al. (2005) Kidney Intl. 68:1801-1807.
# [15] = Single dose toxicity (LD50, acute toxicity); settings: in vivo
# rats [16] = assay: Single dose toxicity in rats; type: in vivo
# [17] = Iron (III) Control Release Test; type: physicochemical
# [18] = test system: patients with iron deficiency anemia or renal anemia; assay: Safety assessments in patients with iron deficiency anemia and renal anemia; type: in vivo, human
# [19] = calculated dose/first-dose 1,000 mg studies
substance,measurement,setting,value
"ferrous sulfate [oral iron, reference compound]",incidence of premature discontinuation due to adverse events,subjects with anemia [1],3.1%
same,incidence of adverse events associated with investigations,subjects with anemia [1]; [19],3.9%
same,incidence of gastrointestinal disorders,subjects with anemia [1]; [19],31.0%
same,incidence of skin and subcutaneous tissue disorders,subjects with anemia [1]; [19],2.4%
same,incidence of treatment-emergent adverse events on the first day of dosing,subjects with anemia [1]; [19],2.7%
same,overall incidence of treatment-emergent adverse events,subjects with anemia [1]; [19],51.2%
same,incidence of adverse events leading to discontinuation,subjects with anemia [1]; completed multicenter studies,2.1%
same,incidence of gastrointestinal events,subjects with anemia [1]; completed multicenter studies,31.0%
same,incidence of premature discontinuations,subjects with anemia [1]; completed multicenter studies,9.6%
same,overall incidence of treatment-emergent adverse events,subjects with anemia [1]; completed multicenter studies,51.2%
same,incidence of drug-related treatment-emergent adverse events of hypersensitivity,subjects with anemia [2],0.2%
polyglucose sorbitol carboxymethyl ether-coated non-stoichiometric magnetite [ferumoxytol],average colloidal particle size,[3],about 30 nm
same,blood half-life,[4],10 to 14 h
same,osmolarity,[5],297 mOsm/kg
"polynuclear iron (III)-hydroxide 4(R)-(poly-(1→4)-O-α-D-glucopyranosyl)-oxy-2(R),3(R),5(R),6-tetrahydroxy-hexanoate [VIT-45]","cumulative dose with no observed adverse effect level (clinical signs of iron accumulation in liver, spleen, kidneys)",dogs [6],up to 117 mg iron/kg body weight
same,"cumulative dose with no observed adverse effect level (clinical signs of iron accumulation in liver, spleen, kidneys)",rats [7],up to 117 mg iron/kg body weight
same,incidence of premature discontinuation due to adverse events,subjects with anemia [1],2.1%
same,treatment-emergent adverse event: abdominal pain,subjects with anemia [1]; 1095 VIT-45 subjects,2.5%
same,treatment-emergent adverse event: blood phosphate decreased,subjects with anemia [1]; 1095 VIT-45 subjects,2.4%
same,treatment-emergent adverse event: headache,subjects with anemia [1]; 1095 VIT-45 subjects,8.6%
same,treatment-emergent adverse event: hypertension,subjects with anemia [1]; 1095 VIT-45 subjects,2.2%
same,treatment-emergent adverse event: hypotension,subjects with anemia [1]; 1095 VIT-45 subjects,2.0%
same,treatment-emergent adverse event: nasopharyngitis,subjects with anemia [1]; 1095 VIT-45 subjects,2.0%
same,treatment-emergent adverse event: nausea,subjects with anemia [1]; 1095 VIT-45 subjects,2.4%
same,incidence of other serious adverse events,subjects with anemia [1]; all completed multicenter studies,3%
same,drug-related treatment-emergent adverse event: blood phosphate decreased,subjects with anemia [1]; [19],3.3%
same,drug-related treatment-emergent adverse event: headache,subjects with anemia [1]; [19],3.9%
same,incidence of adverse events associated with investigations,subjects with anemia [1]; [19],9.1%
same,incidence of gastrointestinal disorders,subjects with anemia [1]; [19],15.2%
same,incidence of skin and subcutaneous tissue disorders,subjects with anemia [1]; [19],7.3%
same,incidence of treatment-emergent adverse events on the first day of dosing,subjects with anemia [1]; [19],6.8%
same,overall incidence of treatment-emergent adverse events,subjects with anemia [1]; [19],49.5%
same,incidence of adverse events leading to discontinuation,subjects with anemia [1]; completed multicenter studies,1.8%
same,incidence of gastrointestinal events,subjects with anemia [1]; completed multicenter studies,12.8%
same,incidence of premature discontinuations,subjects with anemia [1]; completed multicenter studies,10%
same,overall incidence of treatment-emergent adverse events,subjects with anemia [1]; completed multicenter studies,49.5%
same,serious adverse events or withdrawals due to related adverse events,"subjects with anemia [1]; open label clinical trials, about 1700 subjects, up to 1,000 mg over 15 minutes i.v.",no serious adverse events or withdrawals
same,incidence of other serious adverse events,"subjects with anemia [1]; placebo-controlled, single-dose crossover study",0.3%
same,time after initial dose at which decreases in blood phosphate were apparent,"subjects with anemia [1]; transient, asymptomatic",approximately 7 days
same,maximal total serum iron concentration (Cmax),[8]; 500 mg dose,approximately 150 μg/mL
same,maximal total serum iron concentration (Cmax),[8]; 1000 mg dose,~320 µg/mL
same,renal elimination,"[8]; human, in vivo",negligible
same,patients who achieved an increase of Hb of ≥10 g/L at any point during the study,[9],61.7%
same,treatment-related local tissue irritation,rabbit,No treatment-related local tissue irritation
same,calculated terminal half-life (t1/2),"[10]; i.v., patients",approximately 16 hours
same,distribution after intravenous administration,"[10]; in vivo, iv","mainly found in the liver, spleen, and bone marrow"
same,"safe and tolerated intravenous dose relative to 1,000 mg iron once weekly in humans",dogs [11],up to 60 times
same,patients who achieved a ≥20 g/L increase in Hb on at least 1 occasion,patients (Hb levels); Cohort 1,75%
same,patients who achieved normal Hb levels,"patients (Hb levels); Cohort 1, 4-week follow-up visit",37%
same,patients who achieved a ≥20 g/L increase in Hb on at least 1 occasion,patients (Hb levels); Cohort 2,73%
same,patients who achieved normal Hb levels,"patients (Hb levels); Cohort 2, 4-week follow-up visit",48%
same,"Size of the Particle +/- SEM, Iron core",[12],4.4 ± 1.4 nm
same,"Size of the Particle +/- SEM, Total Particle",[12],6.7 ± 2.5 nm
same,reaction with dextran antibodies,dextran antibodies,does not react with dextran antibodies
same,specific responses in dextran antigenicity test,dextran antibodies,no specific responses
same,changes in vital signs evaluations,subjects with anemia [2],no clinically meaningful changes
same,deaths attributed to treatment,subjects with anemia [2],no deaths
same,drug-related mild or moderate hypotension,subjects with anemia [2],0.2%
same,"drug-related mild or moderate hypotension, number of subjects",subjects with anemia [2],4 subjects
same,incidence of drug-related treatment-emergent adverse events of hypersensitivity,subjects with anemia [2],0.2%
same,median time to recovery of blood phosphate,subjects with anemia [2],approximately 2 weeks
same,"overall incidence of treatment-emergent adverse events, 200 mg versus 1000 mg doses",subjects with anemia [2],similar
same,"treatment-emergent adverse events indicative of potential allergic reactions (rash, pruritus, urticaria)",subjects with anemia [2],< 2%
same,main pharmacodynamic effects,patients,"transient elevations of serum iron levels, TfS and serum ferritin"
same,"clastogenic, mutagenic, chromosomal damage or bone marrow cell toxicity",[13],no evidence
same,highest non-lethal dose level,mice,1000 mg iron/kg b.w.
same,signs of illness,mice; single dose 250 mg iron/kg b.w. injected within 2 seconds,no signs of illness
same,"safe and tolerated intravenous dose relative to 1,000 mg iron once weekly in humans",rodents,up to 60 times
same,osmolarity,[14],physiological osmolarity
same,acute toxicity relative to iron sucrose,[15],one-fifth
same,highest non-lethal dose level,rats [16],1000 mg iron/kg b.w.
same,Iron (III) Control Release Test T75,[17],117.8 min
same,iron overload,[18]; dosing schedules of the studies,Iron overload was avoided
same,deaths attributed to treatment,[18]; repeated-dose studies,no deaths
same,laboratory values reported as treatment-related treatment-emergent adverse events,[18]; repeated-dose studies,6 patients
same,patients who experienced serious adverse events (considered not related),[18]; repeated-dose studies,10 patients
same,withdrawals considered possibly related to treatment (allergic skin reactions),[18]; repeated-dose studies,2 withdrawals
same,serious adverse events or withdrawals due to adverse events,[18]; single-dose studies,no serious adverse events or withdrawals
